From patent US9446039B2, “Aminoheteroaryl compounds as MTH1 inhibitors” (CEMM—FORSCHUNGSZENTRUM FÜR MOLEKULARE MEDIZIN GMBH, priority 2012, dated 2016)

What was measured:
Type in all cases: binding
[1] = target: T1, SW480 colon carcinoma cells lysate proteins (Homo sapiens, UniProt P49458); conditions: PreyGene SRP9
T1 sequence (P49458 1-86): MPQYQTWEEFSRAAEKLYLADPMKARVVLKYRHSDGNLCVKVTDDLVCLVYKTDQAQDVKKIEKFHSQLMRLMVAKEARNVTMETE

[2] = target: SW480 colon carcinoma cells lysate proteins (Homo sapiens, UniProt P99999); conditions: PreyGene CYCS
[3] = target: SW480 colon carcinoma cells lysate proteins (Homo sapiens, UniProt Q13200); conditions: PreyGene PSMD2
[4] = target: T2, SW480 colon carcinoma cells lysate proteins (Homo sapiens, UniProt Q14847); conditions: PreyGene LASP1; SW480 cells
T2 sequence (Q14847 1-261): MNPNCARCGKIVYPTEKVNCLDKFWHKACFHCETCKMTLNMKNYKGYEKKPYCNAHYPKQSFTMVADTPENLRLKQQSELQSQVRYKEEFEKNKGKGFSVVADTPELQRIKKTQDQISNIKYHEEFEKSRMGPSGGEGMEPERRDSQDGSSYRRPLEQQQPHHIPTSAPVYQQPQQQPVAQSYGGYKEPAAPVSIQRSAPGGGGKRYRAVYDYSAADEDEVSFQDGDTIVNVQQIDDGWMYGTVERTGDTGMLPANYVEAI

Sequence of SW480 colon carcinoma cells lysate proteins (Homo sapiens, UniProt Q13200) (Q13200 whole entry): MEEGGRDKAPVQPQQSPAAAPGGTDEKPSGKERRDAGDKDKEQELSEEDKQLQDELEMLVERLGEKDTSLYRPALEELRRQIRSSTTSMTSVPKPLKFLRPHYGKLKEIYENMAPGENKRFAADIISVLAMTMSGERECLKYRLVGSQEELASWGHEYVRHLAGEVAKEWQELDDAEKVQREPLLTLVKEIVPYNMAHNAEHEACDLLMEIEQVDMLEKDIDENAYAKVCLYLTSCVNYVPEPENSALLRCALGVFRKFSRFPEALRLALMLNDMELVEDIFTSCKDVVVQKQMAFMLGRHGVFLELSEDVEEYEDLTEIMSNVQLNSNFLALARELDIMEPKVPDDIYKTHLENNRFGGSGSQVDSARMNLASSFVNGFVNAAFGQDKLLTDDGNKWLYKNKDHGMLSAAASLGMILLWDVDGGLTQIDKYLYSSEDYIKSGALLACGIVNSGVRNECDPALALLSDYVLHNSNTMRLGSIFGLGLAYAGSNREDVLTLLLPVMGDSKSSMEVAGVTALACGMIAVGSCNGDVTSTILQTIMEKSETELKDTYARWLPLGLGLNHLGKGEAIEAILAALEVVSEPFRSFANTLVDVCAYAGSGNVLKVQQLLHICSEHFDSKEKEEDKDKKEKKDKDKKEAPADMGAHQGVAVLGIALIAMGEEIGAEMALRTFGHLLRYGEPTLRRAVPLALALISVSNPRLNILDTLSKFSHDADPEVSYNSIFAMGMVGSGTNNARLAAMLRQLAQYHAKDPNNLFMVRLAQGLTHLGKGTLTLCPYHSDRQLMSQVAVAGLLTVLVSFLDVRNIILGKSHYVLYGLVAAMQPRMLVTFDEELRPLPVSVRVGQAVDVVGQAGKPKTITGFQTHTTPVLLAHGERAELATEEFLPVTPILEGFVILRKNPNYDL
Sequence of SW480 colon carcinoma cells lysate proteins (Homo sapiens, UniProt P99999) (P99999 whole entry): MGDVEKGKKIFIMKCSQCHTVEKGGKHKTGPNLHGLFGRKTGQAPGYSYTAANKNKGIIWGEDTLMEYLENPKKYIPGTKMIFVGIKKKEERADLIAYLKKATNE

## C[C@H](Oc1cc(-c2cnn(C3CCNCC3)c2)cnc1N)c1c(Cl)ccc(F)c1Cl [(5)-crizotinib]
[1]
  AvgP: 0.2561
  SC.Exp. 1-1: 2
  SC.Exp. 1-2: 1
  SC.Exp. 2-1: 0
  SC.Exp. 2-2: 2
  Sum (SC.Exp.): 5
[2]
  AvgP: 0.391
  SC.Exp. 1-1: 2
  SC.Exp. 1-2: 3
  SC.Exp. 2-1: 0
  SC.Exp. 2-2: 0
  Sum (SC.Exp.): 5
[3]
  AvgP: 0.4359
  SC.Exp. 1-1: 6
  SC.Exp. 1-2: 5
  SC.Exp. 2-1: 0
  SC.Exp. 2-2: 0
  Sum (SC.Exp.): 11
[4]
  AvgP: 0
  SC.Exp. 1-1: 0
  SC.Exp. 1-2: 1
  SC.Exp. 2-1: 0
  SC.Exp. 2-2: 0
  SC.Exp. Sum: 1
